Laboratory results reported in US4190725A, “5,6-Diaryl-1,2,4-triazines” (Eli Lilly and Company, priority 1978, dated 1980).

System: Erythemic response
Assay: Erythemic response inhibition, UV-exposed guinea pig skin (modified method of Winder), topical
Assay type: in vivo, Albino guinea pigs
Conditions: groups of four; for ED50 (dose which produced a 50% inhibition of the erythemic response): in 0.1 cc. ethanol, 12 cm.^2 skin, plotted or calculated, in several instances by extrapolation; for Inhibition % (% Inhibition compared with control): dose 100 mcg./12 cm.^2, in 0.1 cc. ethanol
Protocol: A modification of the method of Winder was used to measure the anti-inflammatory activites of the compounds of the present invention; see C. V. Winder, et al., Arch. Int. Pharmacodyn., 116, 261 (1958). Albino guinea pigs of either sex, weighing 225-300 grams, were shaved on the back and chemically depilated (Nair® Lotion Hair Remover, Carter Products, N.Y., N.Y.) 18-20 hours before exposure to ultraviolet light. The animals, in groups of four and bearing identifying ear tags, were treated by applying to an area of skin of about 12 cm.^2 a solution of test compound dissolved in 0.1 cc. of ethanol. The control treatment consisted of administering only the drug vehicle, ethanol, to a group of four animals. Groups of four animals each were given different treatment levels of test compound to obtain dose responses. Random order and blind administration of the test compounds were employed; drug identification was not made until after all animals were graded. Immediately prior to drug application, the animals were exposed in groups of four to a high-intensity ultraviolet light for a measured period of time (usually 4-7 seconds). The ultraviolet light source, a Hanovia Lamp (Kroymayer-Model 10), was placed in contact with the skin of the animal's back. A gummed notebook paper reinforcement was affixed to the lamp lens to provide an unexposed area of contrast for grading the erythema. Beginning one hour after exposure and thereafter at half-hour intervals for another 11/2 hours, the degree of resulting erythema was graded by an arbiturary scoring system based upon the degree of contrast and redness formed. Anti-inflammatory agents delay the development of the erythema and usually have their greatest effect at the initial grading periods. The scores were, therefore, weighted by factors of 4, 3, 2, and 1 at the 1.0, 1.5, 2.0, and 2.5 hour scoring times, respectively. The erythema was graded as follows: […]
______________________________________
Score Appearance of Exposed Area
0 No redness and no contrast
1 Slight redness with a faint
2 Slight to moderate redness
with a distinct outline
3 Marked redness with a distinct
Total scores from each treatment group of four guinea pigs were compared to the control treatment, and the percent inhibition was calculated as follows: [formula]
A dose-response graph was obtained by plotting dose versus percent inhibition, the points representing the average of each treatment group of four guinea pigs. The dose (ED50) in micrograms per 12 cm.^2 (mcg./12 cm.^2) which produced a 50% inhibition of the erythemic response for the particular compound tested was obtained in several instances by extrapolation. Table I below summarizes the results obtained from testing representative compounds of the invention by the foregoing method. The plotted or calculated ED50 for the particular compound tested, where available, is given in the last column of Table I.

## CCc1nnc(-c2ccc(OC)cc2)c(-c2ccc(OC)cc2)n1 [C2 H5 -- 0 OCH3 OCH3, 3-ethyl-5,6-bis(4-methoxyphenyl)-1,2,4-triazine]
  ED50 (dose which produced a 50% inhibition of the erythemic response): 4 mcg./12 cm.^2

## CCOc1nnc(-c2ccc(OC)cc2)c(-c2ccc(OC)cc2)n1 [C2 H5 O 1 OCH3 OCH3, 3-ethoxy-5,6-bis(4-methoxyphenyl)-1,2,4-triazine]
  ED50 (dose which produced a 50% inhibition of the erythemic response): 3.1 mcg./12 cm.^2

## CCSc1nnc(-c2ccc(OC)cc2)c(-c2ccc(OC)cc2)n1 [C2 H5 S 1 OCH3 OCH3, 3-ethylthio-5,6-bis(4-methoxyphenyl)-1,2,4-triazine]
  ED50 (dose which produced a 50% inhibition of the erythemic response): 21.3 mcg./12 cm.^2

## CCCCCCSc1nnc(-c2ccc(OC)cc2)c(-c2ccc(OC)cc2)n1 [C6 H13 S 1 OCH3 OCH3, 3-hexylthio-5,6-bis(4-methoxyphenyl)-1,2,4-triazine]
  ED50 (dose which produced a 50% inhibition of the erythemic response): 37.4 mcg./12 cm.^2

## COc1ccc(-c2nnc(SCc3ccccc3)nc2-c2ccc(OC)cc2)cc1 [CH2 C6 H5 S 1 OCH3 OCH3, 3-benzylthio-5,6-bis(4-methoxyphenyl)-1,2,4-triazine]
  Inhibition % (% Inhibition compared with control): 49%

## COc1ccc(-c2nnc(C)nc2-c2ccc(OC)cc2)cc1 [CH3 -- 0 OCH3 OCH3, 5,6-bis(4-methoxyphenyl)-3-methyl-1,2,4-triazine]
  ED50 (dose which produced a 50% inhibition of the erythemic response): 2.4 mcg./12 cm.^2

## COc1ccc(-c2nnc(OC)nc2-c2ccc(OC)cc2)cc1 [CH3 O 1 OCH3 OCH3, 3-methoxy-5,6-bis(4-methoxyphenyl)-1,2,4-triazine]
  ED50 (dose which produced a 50% inhibition of the erythemic response): 7 mcg./12 cm.^2

## COc1ccc(-c2nnc(SC)nc2-c2ccc(OC)cc2)cc1 [CH3 S 1 OCH3 OCH3, 5,6-bis(4-methoxyphenyl)-3-methylthio-1,2,4-triazine]
  ED50 (dose which produced a 50% inhibition of the erythemic response): 9 mcg./12 cm.^2

## COc1ccc(-c2nnc(SC(C)C)nc2-c2ccc(OC)cc2)cc1 [CH(CH3)2 S 1 OCH3 OCH3, 3-isopropylthio-5,6-bis(4-methoxyphenyl)-1,2,4-triazine]
  Inhibition % (% Inhibition compared with control): 35%
